Source: patent US9284283B2, “Macrocyclic compounds for modulating IL-17” (ENSEMBLE THERAPEUTICS CORPORATION, priority 2012, dated 2016)

Target: T1, biotinylated human IL-17 (binding to IL17R/Fc) (Homo sapiens, UniProt Q16552)
T1 construct: purchased R&D Systems 317-ILB (IL-17, biotinylated); 177-IR (IL17R/Fc)
T1 sequence (Q16552 20-155 limits assumed): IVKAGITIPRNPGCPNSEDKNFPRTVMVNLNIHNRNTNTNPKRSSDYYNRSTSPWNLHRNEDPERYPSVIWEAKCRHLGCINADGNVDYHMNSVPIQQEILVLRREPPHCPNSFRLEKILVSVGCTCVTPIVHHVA
Assay: IL-17 competition ELISA II (captured IL17R/Fc, biotinylated IL-17)
Description: In this version, a high binding 96-well plate (Costar #9018) was coated with 20 nM of goat anti-human IgG (KPL 01-10-02) in PBS, 100 μL/well, for 30 min at 37° C. followed by 5 min at 4° C. The plate was then washed in PBST (PBS/0.05% Tween-20) on a plate washer, (BioTek ELx450) then blocked with protein-free blocking buffer (Thermo Scientific #37573) in 250 μL/well for 30 min on a shaker at room temperature, and then washed again. IL17R/Fc (R&D Systems #177-IR; 10 nM in PBST, 100 μL/well) was then added to all wells. The plate was then incubated for 30 minutes at room temperature on the shaker.
While the receptor capture step was underway, compound dilutions were prepared in PBST to a concentration of 1 μM in 1.5 mL tubes. After the receptor capture step, the plate was washed and 50 μL PBST was added to the wells in row B down to row H. Then, 62.5 μL of the 1 μM compound dilutions were added to the wells of row A. From row A, 12.5 μL of the compound solution was removed and added to row B with mixing and this process of 5-fold dilutions was continued, by row, to row G. One of the wells in row A received only PBST (62.5 μL) and this dilution series served as the no competitor control. Then, going up from row G to row A, 50 μL of b-IL-17 (biotinylated human IL-17, R&D Systems #317-ILB; 20 nM) was added to all wells. Row H received 50 μL of PBST and served as the blank row, i.e., no compound and no b-IL-17. The plate was then incubated for 30 minutes at room temperature on the shaker.
After the wash, 100 μL Streptavidin-Horseradish Peroxidase (SA-HRP) (KPL #14-30-00) at 25 ng/mL in PBST was added to each well in the plate and the plate incubated for 30 minutes at room temperature followed by wash and 100 μL SureBlue™ TMB (KPL #52-00-03). After sufficient color development (approx 3-6 minutes), the reaction was fixed by the addition of 100 μL/well 0.5 N HCl and absorbance was measured at 450 nm on a BioTek Synergy 2 plate reader. The absorbances of ‘no competitor’ control and blank control should not exceed 1.5 A.U. and 0.06 A.U., respectively.
Data was processed using BioAssay Enterprise v10.1.4 (CambridgeSoft) software. Linear OD λ450 were plotted against log concentration (x) and fitted to a 4-parameter logistic equation. IC50 was calculated using positive ‘no competitor’ control data as an upper limit and blank control as a lower limit in each assay.

SMILES	IC50
CNC(=O)N[C@@H](Cc1ccccc1Cl)C(=O)Nc1ccc(C[C@H]2NC(=O)CC3(CCCC3)CC(=O)NCCOCCOCCNC2=O)cc1 [Compound 464]	< 100 nM
O=C1CC2(CCCC2)CC(=O)N[C@H](Cc2ccc(NC(=O)[C@H](Cc3ccccc3Cl)NC(=O)C(F)(F)c3ccc(F)cc3)cc2)C(=O)NCCOCCOCCN1 [Compound 559]	< 100 nM
CN1CCNC(=O)CC2(CCCC2)CC(=O)N[C@H](Cc2ccc(NC(=O)[C@H](Cc3ccccc3Cl)NC(=O)Cc3cccc(O)c3)cc2)C(=O)NCC1 [Compound 467]	< 100 nM
O=C1CC2(CCCC2)CC(=O)N[C@H](Cc2ccc(NC(=O)[C@H](Cc3ccccc3Cl)NC(=O)C(=O)c3ccccc3)cc2)C(=O)NCCOCCOCCN1 [Compound 548]	< 100 nM
C[C@H]1NC(=O)[C@@H](CCCCNC(=O)[C@H](Cc2ccccc2Cl)NC(=O)C(F)(F)c2ccccc2)NC(=O)CC2(CCCC2)CC(=O)NCCCCCNC1=O [Compound 606]	> 10000 nM
CN(C)CC[C@H]1NC(=O)[C@@H](Cc2ccc(NC(=O)[C@H](Cc3ccccc3Cl)NC(=O)C(F)(F)c3ccccc3)cc2)NC(=O)CC2(CCCC2)CC(=O)N(C)CCOCCN(C)C1=O [Compound 642]	< 100 nM
C[C@H]1NC(=O)[C@@H](Cc2ccc(NC(=O)[C@H](Cc3ccccc3Cl)NC(=O)Oc3ccccc3)cc2)NC(=O)CC2(CCCC2)CC(=O)N(C)CCN(C)CCN(C)C1=O [Compound 574]	< 100 nM
O=C1CC2(CCCC2)CC(=O)N[C@H](Cc2ccc(NC(=O)[C@H](Cc3ccccc3Cl)NC(=O)c3ccccc3O)cc2)C(=O)NCCOCCOCCN1 [Compound 537]	< 100 nM
CN1CCCCCNC(=O)CC2(CCCC2)CC(=O)NC(Cc2ccc(NC(=O)C(NC(=O)c3cccnc3)C3CCCCC3)cc2)C1=O (stereo not shown) [Compound 422]	1000 to 10000 nM
O=C1CC2(CCCC2)CC(=O)N[C@H](Cc2ccc(NC(=O)[C@H](Cc3ccc(F)cc3Cl)NC(=O)C(F)(F)c3ccccc3)cc2)C(=O)NCCOCCOCCN1 [Compound 530]	< 100 nM
C[C@H]1NC(=O)[C@@H](Cc2ccc(NC(=O)[C@H](Cc3ccccc3Cl)NC(=O)Cc3cccnc3)cc2)NC(=O)CC2(CCCC2)CC(=O)N(C)CCCCCN(C)C1=O [Compound 628]	< 100 nM
C[C@H]1NC(=O)[C@@H](Cc2ccc(NC(=O)[C@@H](Cc3ccccc3Cl)NC(=O)Cc3ccc(F)cc3)cc2)NC(=O)[C@@H]2CC[C@@H](C2)C(=O)NCCCCCNC1=O [Compound 564]	100 to 1000 nM
O=C1CNC(=O)[C@@H](Cc2ccc(-n3c(C(F)(F)F)nc(Cc4ccccc4Cl)c3OC(=O)C(F)(F)F)cc2)NC(=O)CC2(CCCC2)CC(=O)NCCCCCN1 [Compound 440]	100 to 1000 nM
CN1CCCCCN(C)C(=O)CC2(CCCC2)CC(=O)N[C@H](Cc2ccc(NC(=O)[C@H](Cc3ccccc3Cl)NC(=O)Cc3ccccc3)cc2)C(=O)NCC1=O [Compound 387]	< 100 nM
O=C1CC2(CCCC2)CC(=O)N[C@H](Cc2ccc(NC(=O)[C@H](Cc3ccccc3Cl)NC(=O)Cc3ccccc3)cc2)C(=O)NCCOCCN1 [Compound 397]	< 100 nM
O=C1CC2(CCCC2)CC(=O)N[C@H](Cc2ccc(NC(=O)[C@H](Cc3ccccc3C(F)(F)F)NC(=O)C3(c4ccc(F)cc4)CC3)cc2)C(=O)NCCOCCOCCN1 [Compound 508]	100 to 1000 nM
C[C@H]1NC(=O)[C@@H](Cc2ccc(NC(=O)[C@H](Cc3ccccc3Cl)NC(=O)Cc3ccc(F)cc3)cc2)NC(=O)CC(C)(C)NC(=O)CCCCCCNC1=O [Compound 620]	< 100 nM
C[C@H]1NC(=O)[C@@H](Cc2ccc(NC(=O)[C@H](Cc3ccccc3Cl)NC(=O)Cc3ccc(CO)cc3)cc2)NC(=O)CC2(CCCC2)CC(=O)NCc2cccc(c2)CNC1=O [Compound 520]	< 100 nM
O=C1CC2(CCCC2)CC(=O)N[C@H](Cc2ccc(NC(=O)[C@H](Cc3ccccc3Cl)NC(=O)Cc3cccc(O)c3)cc2)C(=O)NCCCC[C@@H](C(=O)O)N1 [Compound 461]	< 100 nM
O=C1CC2(CCCC2)CC(=O)N[C@H](Cc2ccc(NC(=O)[C@H](Cc3ccccc3Cl)NC(=O)Cc3ccc(F)cc3)cc2)C(=O)NCCN2CCN(CCN1)CC2 [Compound 532]	100 to 1000 nM

SMILES	IC50
C[C@H]1NC(=O)[C@@H](Cc2ccc(NC(=O)[C@H](Cc3cccs3)NC(=O)C(F)(F)c3ccccc3)cc2)NC(=O)CC2(CCCC2)CC(=O)N(C)CCCCCN(C)C1=O [Compound 630]	< 100 nM
C[C@H]1NC(=O)[C@@H](Cc2ccc(NC(=O)[C@H](Cc3ccccc3Cl)NC(=O)c3cnc4ccccc4c3)cc2)NC(=O)CC2(CCCC2)CC(=O)NCCCCCNC1=O [Compound 428]	< 100 nM
CN1CCOCCOCCN(C)C(=O)[C@@H](Cc2ccc(NC(=O)[C@H](Cc3ccccc3Cl)NC(=O)Cc3ccccc3)cc2)NC(=O)CC2(CCCC2)CC1=O [Compound 589]	< 100 nM
C[C@H]1NC(=O)[C@@H](Cc2cccc(NC(=O)[C@H](Cc3ccccc3Cl)NC(=O)Cc3ccc(F)cc3)c2)NC(=O)CC2(CCCC2)CC(=O)NCCCCCNC1=O [Compound 492]	100 to 1000 nM
C[C@H]1NC(=O)[C@@H](Cc2ccc(NC(=O)[C@@H](Nc3nc4ccccc4o3)C3CCCCC3)cc2)NC(=O)CC2(CCCC2)CC(=O)N(C)CCOCCN(C)C1=O [Compound 663]	< 100 nM
C[C@H]1NC(=O)[C@@H](Cc2ccc(NC(=O)[C@@H](NC(=O)C(F)(F)c3ccccc3)C3CCCCC3)cc2)NC(=O)CC2(CCCC2)CC(=O)N(C)CCOCCN(C)C1=O [Compound 602]	< 100 nM
O=C1CC2(CCCC2)CC(=O)N[C@H](Cc2ccc(NC(=O)[C@H](Cc3ccccc3Cl)NC(=O)Cc3ccccc3)cc2)C(=O)NCCCN1 [Compound 398]	< 100 nM
O=C1CC2(CCCC2)CC(=O)N[C@H](Cc2ccc(NC(=O)[C@@H](NC(=O)c3cccnc3)C3CCCCC3)cc2)C(=O)NCCOCCOCCN1 [Compound 417]	100 to 1000 nM
CN1CCCCCOC(=O)CC2(CCCC2)CC(=O)N[C@H](Cc2ccc(NC(=O)[C@H](Cc3ccccc3Cl)NC(=O)C(F)(F)c3ccccc3)cc2)C(=O)NCC1=O [Compound 678]	< 100 nM
COC(=O)N[C@H](C(=O)Nc1ccc(C[C@H]2NC(=O)CC3(CCCC3)CC(=O)NCCOCCOCCNC2=O)cc1)C1CCCCC1 [Compound 632]	100 to 1000 nM
CN1CCCC/C=C/CNC(=O)[C@@H](Cc2ccc(NC(=O)[C@@H](NC(=O)c3cccnc3)C3CCCCC3)cc2)NC(=O)CC2(CCCC2)CC1=O [Compound 448]	100 to 1000 nM
CN(C)c1ccc(CC(=O)N[C@H](C(=O)Nc2ccc(C[C@H]3NC(=O)CC4(CCCC4)CC(=O)NCCCCCCCCNC3=O)cc2)C2CCCCC2)cc1 [Compound 599]	< 100 nM
O=C1CC2(CCCC2)CC(=O)N[C@H](Cc2ccc(NC(=O)[C@H](Cc3ccccc3Cl)NC(=O)c3ccc(F)cc3)cc2)C(=O)NCCOCCOCCN1 [Compound 521]	< 100 nM
CN1C(=O)CC2(CCCC2)CC(=O)NCCCCCC#CCNC(=O)[C@H]1Cc1ccc(NC(=O)[C@H](Cc2ccccc2Cl)NC(=O)C2(c3ccc(F)cc3)CC2)cc1 [Compound 491]	1000 to 10000 nM
NC(=O)CC[C@@H]1NC(=O)[C@@H](Cc2ccc(NC(=O)[C@H](Cc3ccccc3Cl)NC(=O)Cc3ccc(F)cc3)cc2)NC(=O)CC2(CCCC2)CC(=O)N[C@H](C(=O)O)CCCCNC1=O [Compound 651]	< 100 nM
C[C@H]1NC(=O)[C@@H](Cc2ccc(NC(=O)[C@H](Cc3ccccc3Cl)NC(=O)Cc3ccc(F)cc3)cc2)N(C)C(=O)CC2(CCCC2)CC(=O)NCCCCCN(C)C1=O [Compound 518]	< 100 nM
CN1CCOCCOCCNC(=O)[C@@H](Cc2ccc(NC(=O)[C@H](CC3CCC3)NC(=O)Cc3ccc(N(C)C)cc3)cc2)NC(=O)CC2(CCCC2)CC1=O [Compound 616]	< 100 nM
CN1CCOCCN(C)C(=O)[C@@H](Cc2cccnc2)NC(=O)[C@@H](Cc2ccc(NC(=O)[C@@H](NC(=O)C(F)(F)c3ccccc3)C3CCCCC3)cc2)NC(=O)CC2(CCCC2)CC1=O [Compound 650]	< 100 nM
C[C@H]1NC(=O)[C@@H](Cc2ccc(NC(=O)[C@H](Cc3ccccc3Cl)NC(=O)[C@H](O)c3ccccc3)cc2)NC(=O)CC2(CCCC2)CC(=O)N(C)CCOCCN(C)C1=O [Compound 583]	< 100 nM
COC(=O)N[C@@H](Cc1ccccc1Cl)C(=O)Nc1ccc(C[C@H]2NC(=O)CC3(CCCC3)CC(=O)N(C)CCOCCN(C)C(=O)[C@@H](C)NC2=O)cc1 [Compound 569]	< 100 nM
